The supplement of paper PMC10307832

Tests used:
Assay in all cases: relative viability (nuclei count vs DMSO), 5 days (fraction); higher = more cells survive
[1] = compound: CC1=CC=C(C=C1)C(=O)CN2C3=C(CCCC3)SC2=N [Pifithrin_alpha] + CC(=O)c1c(C)c2cnc(Nc3ccc(N4CCNCC4)cn3)nc2n(C2CCCC2)c1=O [Palbociclib] (partner 0.5 µM)
Method in brief: (§1)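 A single step with final 0.05% Triton X-100, 1% formaldehyde and 1 ug/ml Hoechst fixed the cells and stained nuclei 5 days after treatment. Lung cancer cell lines in 1536-well plates had been treated by pin tool the day after seeding with one drug alone or a fixed anchor-drug dose plus five library-drug doses (not always all listed) in √10 steps, and nuclei were counted on 4× images. Relative viability is the ratio of nuclei in treated wells to nuclei in vehicle wells, taken as the median of duplicate plates.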

[2] = compound: Nc1nc(Nc2ccc3c(c2)CC[C@@H](N2CCCC2)CC3)nn1-c1cc2c(nn1)-c1ccccc1CCC2 [Bemcentinib] + CCNC(=O)c1noc(-c2cc(C(C)C)c(O)cc2O)c1-c1ccc(CN2CCOCC2)cc1 [Luminespib] (partner 0.01 µM)
Method in brief: as §1

[3] = compound: CNC(=O)c1ccccc1Sc1ccc2c(/C=C/c3ccccn3)n[nH]c2c1 [Axitinib] + CC(=O)Nc1cccc(-n2c(=O)n(C3CC3)c(=O)c3c(Nc4ccc(I)cc4F)n(C)c(=O)c(C)c32)c1 [Trametinib] (partner 0.02 µM)
Method in brief: as §1

[4] = compound: CNC(=O)c1ccccc1Sc1ccc2c(/C=C/c3ccccn3)n[nH]c2c1 [Axitinib] + Cc1nc(NC(=O)N2CCC[C@H]2C(N)=O)sc1-c1ccnc(C(C)(C)C(F)(F)F)c1 [Alpelisib] (partner 2 µM)
Method in brief: as §1

Cell Line	relative viability ([1]; first compound 1 µM)	relative viability ([1]; first compound 3.162 µM)	relative viability ([1]; first compound 10 µM)	relative viability ([1]; first compound 31.62 µM)	relative viability ([1]; first compound 100 µM)	relative viability ([2]; first compound 0.04 µM)	relative viability ([2]; first compound 0.1265 µM)	relative viability ([2]; first compound 0.4 µM)	relative viability ([2]; first compound 1.265 µM)	relative viability ([2]; first compound 4 µM)	relative viability ([3]; first compound 0.005 µM)	relative viability ([3]; first compound 0.01581 µM)	relative viability ([3]; first compound 0.05 µM)	relative viability ([3]; first compound 0.1581 µM)	relative viability ([3]; first compound 0.5 µM)	relative viability ([4]; first compound 0.005 µM)	relative viability ([4]; first compound 0.01581 µM)	relative viability ([4]; first compound 0.05 µM)	relative viability ([4]; first compound 0.1581 µM)	relative viability ([4]; first compound 0.5 µM)
COR-L 105	0.382	0.42	0.412	0.357	0.406	0.741	0.839	0.893	0.704	0.783	0.478	0.414	0.446	0.452	0.466	1.08	1.2	1.02	0.932	1.18
NCI-H838	0.192	0.189	0.203	0.188	0.183	0.256	0.278	0.357	0.282	0.262	0.565	0.486	0.584	0.52	0.572	1.12	1	1.05	1	1.18
NCI-H2170	0.369	0.396	0.35	0.312	0.452	0.568	0.923	0.649	0.809	0.869	0.925	0.926	0.875	0.917	1.08	0.849	0.787	0.817	0.892	1.03
EKVX	0.387	0.33	0.321	0.257	0.276	0.825	0.878	0.923	0.838	0.863	0.286	0.29	0.347	0.323	0.406	1.06	0.82	0.838	0.87	1
RERF-LC-KJ	0.91	0.974	0.886	0.66	0.635	1.45	1.23	1.24	1.17	1.1	0.952	0.91	0.875	0.833	0.966	0.87	0.767	0.842	0.77	0.876
LK-2	0.686	0.644	0.687		0.782	0.218	0.167	0.151	0.172	0.182	0.773	0.631	0.515	0.726	0.547	1.02	0.853	0.838	0.902	0.828
